From article PMC3499586, “Heterotrimeric G-protein Signaling Is Critical to Pathogenic Processes in Entamoeba histolytica” (PLoS Pathogens, 2012)

T1: EhRGS-RhoGEF (E. histolytica, UniProt C4LYV4 1-519)
T1 chain: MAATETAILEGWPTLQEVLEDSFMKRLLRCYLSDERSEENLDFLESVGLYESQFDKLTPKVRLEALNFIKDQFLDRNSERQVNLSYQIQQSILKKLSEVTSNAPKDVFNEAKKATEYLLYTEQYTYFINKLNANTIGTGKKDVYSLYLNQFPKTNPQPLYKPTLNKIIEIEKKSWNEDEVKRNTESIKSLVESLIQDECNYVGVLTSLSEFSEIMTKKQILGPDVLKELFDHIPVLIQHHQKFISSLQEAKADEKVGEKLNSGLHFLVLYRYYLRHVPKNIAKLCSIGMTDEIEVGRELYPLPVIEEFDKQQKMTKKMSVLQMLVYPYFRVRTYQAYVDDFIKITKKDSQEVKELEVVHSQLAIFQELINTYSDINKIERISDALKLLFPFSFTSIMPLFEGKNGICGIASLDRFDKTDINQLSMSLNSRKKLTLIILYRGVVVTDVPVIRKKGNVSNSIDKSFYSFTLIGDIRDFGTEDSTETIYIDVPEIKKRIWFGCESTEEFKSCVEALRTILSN

B1: EhGα1 (recombinant, purified from E. coli) (natural protein)
chain: MGCGQSKDNSIDKQIVEMAKSKPITVMLLGSGESGKSTIAKQLKILFGGGFPEQERATHKSSICSNVVTCMRTLIEQSAILNHPMKYQPKSKEFTTEDPVTLPFSPELVGDVEALWADEGIQATYEESAKFQLPDCAKYLFENVKRIAMEDYVPTEEDLIHNRTKTTGIHEYDFVVKDIPFHLIDVGGQRSERKKWVSFFSDVDCAIFVTSLAEYDMKLYEDGNTSRLTESIAVFKDIMTNEFLKGAVKLIFLNKMDLFEEKLTKVPLNTIFPEYTGGDNAVMGAQYIQQLFTGKLQTEEMNISGADGTANIEGAVNEKVYTNPTNATDGSNIKRVFMLAVDVIMKNMAANGKMRPTK

Columns and labels:
EhGα1 = target: T2, EhGα1 (Entamoeba histolytica, UniProt C4M483); test: […]GTPγS radionucleotide binding; conditions: 30 °C; association limited by spontaneous GDP release; labelled compound; a rate, not an affinity
T2 construct: gene EHI_140350; E. coli; N-terminal TEV-cleavable His6 tag; HM-1:IMSS used for trophozoite work

human Gαi1 = target: T3, human Gαi1 (Homo sapiens, UniProt P63096); test: […]GTPγS radionucleotide binding; conditions: 30 °C; association limited by spontaneous GDP release; labelled compound; a rate, not an affinity; figure legend gives 0.06 ±0.01
T3 construct: gene GNAI1; purified protein; details not in main text
T3 sequence (P63096 2-354): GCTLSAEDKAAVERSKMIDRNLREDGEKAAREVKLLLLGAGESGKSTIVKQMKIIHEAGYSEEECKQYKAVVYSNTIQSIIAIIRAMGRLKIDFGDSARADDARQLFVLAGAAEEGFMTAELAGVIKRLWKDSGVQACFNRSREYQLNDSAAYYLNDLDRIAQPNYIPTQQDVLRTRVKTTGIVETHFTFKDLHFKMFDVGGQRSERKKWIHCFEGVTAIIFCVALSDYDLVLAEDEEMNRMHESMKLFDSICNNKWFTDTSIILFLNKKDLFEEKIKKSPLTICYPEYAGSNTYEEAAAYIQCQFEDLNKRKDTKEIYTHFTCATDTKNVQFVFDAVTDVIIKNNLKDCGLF

EhRGS-RhoGEF = target: T1, EhRGS-RhoGEF; test: SPR

| Molecule | kobs (EhGα1) [min⁻¹] | kobs (human Gαi1) [min⁻¹] | Kd (EhRGS-RhoGEF) [nM] |
| --- | --- | --- | --- |
| Nc1nc2c(ncn2[C@@H]2O[C@H](COP(=O)(O)OP(=O)(O)OP(O)(O)=S)[C@@H](O)[C@H]2O)c(=O)[nH]1 [GTPγS] | 0.27 ± 0.06 | 0.064 |  |
| B1 |  |  | 2100 |
